Data: paper PMC10813753 (Biology, 2024)
“And” between values parts separate entries of the source, which are not always exact repeats. Identical values can stand only once.

Experiments:
[1] = test system: RWPE-1 cells (healthy prostate); experiment: MTT viability assay RWPE-1; format: cell-based, human; conditions: 72 h
Method: (§1) A panel of five tumor cell lines and two normal cell lines was used to preliminarily test the cytotoxicity of compounds 1–4, and the experiments were conducted as previously reported. All human cell lines were acquired from American Type Culture Collection (ATCC): tumor PC-3 and DU145 (prostate), HeLa (cervix), MCF7 (breast) and HT29 (colorectal) and healthy HFF-1 (fibroblast) and RWPE-1 (prostate). The cell catalogue reference and culture media used in the experiments were CRL-1435^TM, RPMI (PC-3), HTB-81™, RPMI (DU145), CCL-2^TM, DMEM (HeLa), HTB-22^TM, DMEM (MCF-7), HTB-38^TM, modified McCoy’s 5a medium, Catalogue No. 30-2007 (HT29), SCRC-1041^TM, DMEM (HFF-1) and CRL-11609^TM, Keratinocyte-SFM (RWPE-1). Culture media were purchased from Merck: RPMI-1640, DMEM + 10% FBS (Fetal Bovine Serum) + […] (penicillin/streptomycin/amphotericin B). Media and supplements for RWPE-1 were from ThermoFisher (17005075, Madrid, Spain). MCF7 cells were additionally supplemented with insulin (0.001 mg/mL in 500 mL media). Cells were kept at 37 °C (5% CO2), and culture media were renewed three times per week. When the cells reached 80–100% confluence, they were trypsinized and centrifuged, and the concentration was adjusted to each experiment. Cells were seeded at a density of ~10,000 cells/well into 24-well plates. The cells were treated with ligands 1–4 or the cytotoxic agents PhenQE8, PhenDC3 or cisplatin at different concentrations (10 nM–100 μM). Compound solutions were freshly prepared using the appropriate culture medium. Triplicate experiments were run. For MTT viability assays, after 72 h incubation, 50 μL of MTT (5 mg/mL) was added, and an additional incubation of 4 h was allowed. The medium in each well was then replaced by DMSO, and the absorbance was measured at 570 nm using an ELISA plate reader. Absorbances were normalized using negative controls (untreated cells, in triplicate, with a maximum of 0.9% DMSO content). Dose–response curves were obtained by plotting the percentage of viable cells versus logarithmic compound concentration. IC50 values were determined using Kaleidagragh^TM (3.52) software by adjusting the data to Equation 1/(1 + 10^(m2*(log(m1) − x))); m1 = 0.000003; m2 = 1.

[2] = test system: MCF-7 cells (breast); experiment: MTT viability assay MCF-7; format: cell-based, human; conditions: 72 h
Method: as §1

[3] = test system: telomeric G4 sequence F21T; experiment: FRET-based DNA melting assay, telomeric G4 F21T; format: binding, human; conditions: 0.2 μM F21T, renaturing process, K+ buffer
Method: FRET DNA melting assays were conducted following standard reported procedures. Briefly, the employed oligonucleotides F21T (5′-FAM—(GGG TTA)3GGG—TAMRA-3′) and F10T (5′-FAM—TAT AGC TA TA/Sp18/TA GCT ATA—TAMRA-3′) were dissolved in buffer at 0.25 μM concentration and annealed by heating at 90 °C for 5 min, and then immediately cooling to 0 °C, in the case of F21T, or slowly to rt (F10T) during a period of 3 hours. The solutions were allowed to stand at 4 °C at least overnight.
Tested compounds 1–4 were dissolved in water with up to a maximum 10% DMSO (50 μM stock solution). Each stock solution was then gradually diluted to reach the final concentrations in the assay from 0 to 10 μM and a fixed 0.2 μM concentration of target sequences F21T or F10T. The buffer used for G4 sequence F21T was 10 mM KCl, 90 mM LiCl and 10 mM Li-cacodylate, pH 7.3. The buffer employed for F10T was 100 mM LiCl and 10 mM Li-cacodylate.
The melting process program consisted of an incubation step at 24 °C for 5 min and then a temperature ramp (1 °C/min rate) with fluorescence recordings at every degree up to 95 °C. Subsequently, the microplate with the samples (50 μL) was incubated for 5 min at 96 °C and then gradually cooled by using a temperature ramp of −1 °C/min, with fluorescence measurements at every degree down to 25 °C. The melting and refolding (or renaturing) curves were registered based on the change in emission of the FAM (6-carboxyfluorescein) fluorophore, excited at 492 nm and emitting at 516 nm. Melting temperature values (Tm) were determined from replicate experiments using normalized curves and considering mid-transition T1/2 temperatures.

[4] = test system: PC-3 cells (prostate tumor); experiment: MTT viability assay PC-3; format: cell-based, human; conditions: for selectivity index (SI), prostate tumor PC3 versus prostate non-tumor RWPE-1: from MTT IC50 values
Method: as §1

[5] = test system: DU145 cells (prostate tumor); experiment: MTT viability assay DU145; format: cell-based, human; conditions: 72 h
Method: as §1

[6] = test system: Calf thymus CT DNA; experiment: CT DNA viscosity titration; format: binding; conditions: 25 °C, 10 mM sodium phosphate buffer pH 7.2, mean slope
Method: The DNA viscosity titration was conducted as previously reported. For that purpose, Calf thymus CT DNA was used. DNA and compound 1 solutions were freshly prepared in 10 mM NaH2PO4/Na2HPO4 buffer, pH = 7.2. CT DNA solutions (~0.35 mM, nt) were equilibrated for 20 min at 25 °C in a thermostated bath, and 20 flow times were then recorded. Several aliquots (ca. 25–60 μL each) of a solution of ligand 1 (~1.8 mM) were sequentially added. After a 20 min equilibration at 25 °C, flow times were registered. Finally, viscosities (μ) were calculated at each titration point, from the averaged flow times recorded and the viscometer constant. The viscosity graphs were obtained by plotting (μ/μ0)^1/3 versus r, the molar ratio of bound ligand to DNA. The parameter μ0 represents the DNA solution viscosity in the absence of a compound.
Viscosity titration assays are known to provide useful information, mainly in reversible dsDNA-ligand non-covalent binding modes, and, especially, they are normally used to differentiate between classical DNA intercalants from groove or external binders. The theory of Cohen and Eisenberg establishes that the existence (or not) of changes in the viscosity of a DNA solution upon binding to small-molecule ligands could be correlated to the ligand binding mode. […]

Substance: 2,2′-(1,10-Phenanthroline-2,9-diyl)-bis(methylene)-bis(hydrazine-1-carbothioamide) [compound 1]
- IC50 [1]: 90.8 ± 8.8 µM
- IC50 [2]: 78.4 ± 11 µM
- ΔTm of telomeric G4 F21T ([3]; 5 μM compound): ~ 7 °C
- ΔTm of telomeric G4 F21T ([3]; 10 μM compound): ~ 12 °C
- IC50 ([4]; MTT, 72 h): 18 µM and 18.4 µM
- selectivity index (SI), prostate tumor PC3 versus prostate non-tumor RWPE-1 [4]: 5
- selectivity index (SI), prostate tumor PC3 versus prostate non-tumor RWPE-1 ([4]; listed as neutral derivative): ~ 5
- IC50 [5]: 62.2 ± 5.9 µM
- viscosity slope, (η/ηo)^1/3 versus r [6]: ca. 0.13
